Literature values, collected in patent US20050220810A1, “Anti-aging preparation” (Shiseido Company, Ltd., priority 2002, published 2005).

System: vascular endothelial cell HMVEC
Conditions: general statement on positive controls of TSP-1 induction; no test described

In the case of “bFGF: fibroblast growth factor, a positive control of the TSP-1 inducing substance”, the “induction of cell death in vascular endothelial cells” value is listed as “does not induce cell death”.
